These results are taken from publication PMC2889921 (The Journal of organic chemistry, 2009).

The target in this test is T1, PKCζ (protein kinase C ζ) (Homo sapiens, UniProt Q05513).
T1 sequence (Q05513 1-592): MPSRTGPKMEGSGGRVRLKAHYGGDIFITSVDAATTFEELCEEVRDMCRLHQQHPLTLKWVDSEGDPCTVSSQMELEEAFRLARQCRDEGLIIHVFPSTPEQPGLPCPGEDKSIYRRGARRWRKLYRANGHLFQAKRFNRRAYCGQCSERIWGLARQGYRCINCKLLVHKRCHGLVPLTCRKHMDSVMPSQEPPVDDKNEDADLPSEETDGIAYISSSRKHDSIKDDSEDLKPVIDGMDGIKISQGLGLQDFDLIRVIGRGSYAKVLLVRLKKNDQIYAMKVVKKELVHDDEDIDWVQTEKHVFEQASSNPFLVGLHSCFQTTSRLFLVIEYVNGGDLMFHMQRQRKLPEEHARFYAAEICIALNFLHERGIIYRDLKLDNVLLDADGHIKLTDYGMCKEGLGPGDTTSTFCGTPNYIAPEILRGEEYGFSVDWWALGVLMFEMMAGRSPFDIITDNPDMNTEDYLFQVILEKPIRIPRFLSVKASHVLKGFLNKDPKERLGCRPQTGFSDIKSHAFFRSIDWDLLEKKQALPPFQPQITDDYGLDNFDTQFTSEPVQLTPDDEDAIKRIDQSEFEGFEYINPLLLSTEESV
As to the kind of experiment: homogeneous TR-FRET kinase activity assay. It is filed as biochemical.

Take fibrosterol sulfate A [compound 1]: the IC50 came out at 16.4 µM.
Take fibrosterol sulfate B [compound 2]: the midpoint of inhibition, the IC50, lay at 5.6 µM.

One may read the IC50 as the concentration that gives 50% inhibition. The low end stands for higher potency, the high end for lower potency.
